Data set [1] has as its system neuropathic guinea-pigs. The experiment in a line: Side-effects observed after administration in the neuropathic pain model. It is filed as in vivo, guinea pig. On the procedure: (§1) The enantiomers of the compound of formula I are administered daily in 0.5% methyl-cellulose/water, with Trileptal™ included in each experiment as positive control. Each experiment uses 6 randomly assigned animals per treatment group. Statistical analysis is carried out on withdrawal threshold data comparing test to vehicle.
The R-enantiomer of the compound of formula I produces a dose-related reversal of mechanical hyperalgesia in neuropathic guinea-pigs. A maximum reversal of 73% is observed 1 h following administration with a calculated D50 value of 47 mg/kg.

Data set [2] has as its system neuropathic guinea-pigs. The experiment in a line: Reversal of mechanical hyperalgesia in a model of neuropathic pain (partial sciatic nerve ligation, paw withdrawal threshold). It is filed as in vivo, guinea pig.
Excerpt: Neuropathic hyperalgesia is induced by partial ligation of the left sciatic nerve (Seltzer et al, Pain 43, 1990, 205-218; Campbell et al, Neuroscience 87, 1998, 527-532). Briefly, male Dunkin Hartley guinea pigs (200-250 g) are anaesthetized with isoflurane in N2O:O2, the left sciatic nerve exposed at mid thigh level through a small incision and ⅓ to ½ of the nerve thickness tightly ligated within a 7.0 silk suture. The wound is closed and the animals are allowed to recover from surgery for 12 to 15 days.
Mechanical hyperalgesia is assessed by measuring paw withdrawal thresholds to an increasing pressure stimulus placed onto the dorsal surface of the paw using an analgesymeter (Ugo-Basile, Milan) with a cut-off of 250 g. Withdrawal are measured on both the ipsilateral (ligated) and contralateral (unligated) paw prior to and then up to 6 h following drug or vehicle administration. Reversal of hyperalgesia at each time point is calculated according to the following formula, which uses the contralateral paw as a reference: […]
as §1

Where [3] appears, read: 1 h following administration, neuropathic guinea-pigs.
[4] abbreviates: highest dose tested (100 mg/kg).

The values that follow come from patent US20090054404A1, “USE OF R-10-HYDROXY-10,11-DIHYDRO-CARBAMAZEPINE IN NEUROPATHIC PAIN” (priority 2003, published 2009).

With `NC(=O)N1c2ccccc2C[C@@H](O)c2ccccc21` (single isomer, unassigned) [R-enantiomer, R(−)-10,11-dihydro-10-hydroxy-5H-dibenzo[b,f]azepine-5-carboxamide], the side-effects entry with neuropathic guinea-pigs [1] (highest dose) was “comparatively mild side-effect”. Also, in the data set with neuropathic guinea-pigs [2] (setting [3]), the “calculated D50 value (reversal of mechanical hyperalgesia)” value is reported as 47 mg/kg and the “maximum reversal of mechanical hyperalgesia” value amounted to 73%. Also, the “duration of anti-hyperalgesic effect” value in the data set with neuropathic guinea-pigs [2] (6 h following administration) was “significant activity”.

With `NC(=O)N1c2ccccc2C[C@H](O)c2ccccc21` (single isomer, unassigned) [S-enantiomer, S(+)-10,11-dihydro-10-hydroxy-5H-dibenzo[b,f]azepine-5-carboxamide], in the data set with neuropathic guinea-pigs [1] (at doses that reverse mechanical hyperalgesia), the side-effects result was “marked side-effects, principally ataxia and catalepsy”. For the same compound, in the data set with neuropathic guinea-pigs [2] (setting [4]), the anti-hyperalgesic activity entry is recorded as “observed” and the “apparent maximal reversal of hyperalgesia” value is on record as 55%. Moreover, the anti-hyperalgesic activity result with neuropathic guinea-pigs [2] (lower doses (below 100 mg/kg)) was “no significant effect”.
